From patent publication US8653004B2, “Actives-comprising polymer networks, processes for producing them, and their use” (priority 2007, dated 2014)
Values after ≈ are worked out from the molar mass of the structure shown.

Test: physchem
Type: physicochemical
Conditions: water

CCNc1nc(NC(C)(C)C)nc(SC)n1 [terbutryn, N2-tert-butyl-N4-ethyl-6-methylthio-1,3,5-triazine-2,4-diamine]
solubility: ~20 µg/mL (≈ 82.9 µM)
